T/C data for 20 compounds are collected here from PubChem BioAssay AID266 (DTP/NCI, 2004).

In the assay the test system is Nude mice, LX-1 lung xenograft intrarenal, tumor weight T/C. In words: NCI In Vivo Anticancer Drug Screen. Data for tumor model Human Lung LX-1 Xenograft (intrarenal inoculation) in NU/NU BALB/C (nude) mice. Particulars: endpoint: mean tumor weight change, higher = larger tumour. Here is the method:
The antitumor activity of compounds was measured in mice bearing transplantable tumors. Survival or tumor size were measured and the results are expressed as the measurement made in the treated group (T) divided by the measurement made in the vehicle treated control group (C). The tumor model used in this assay is Human Lung LX-1 Xenograft (intrarenal inoculation) in NU/NU BALB/C (nude) mice

Where [1] appears, read: dose: 150.0 mg/kg/injection, schedule: Q04DX003 (sc), vehicle: saline with Tween-80.
The mark [2] stands for this setting: dose: 100.0 mg/kg/injection, schedule: Q01DX010 (sc), vehicle: saline with Tween-80.
The mark [3] stands for this setting: dose: 200.0 mg/kg/injection, schedule: Q01DX010 (sc), vehicle: saline with Tween-80.
The mark [4] stands for this setting: dose: 400.0 mg/kg/injection, schedule: Q01DX010 (sc), vehicle: saline with Tween-80.
The mark [5] stands for this setting: dose: 50.0 mg/kg/injection, schedule: Q01DX010 (sc), vehicle: saline with Tween-80.

“And” between values parts separate entries of the source, which are not always exact repeats. Equal values may be shown once. Inconclusive results are not listed.

Regarding `CCN(CC)Cc1cc2[nH]c3c4ccc(Cl)cc4ncc3c2cc1OC`, the T/C by setting is: (dose: 75.0 mg/kg/injection, schedule: Q04DX003 (sc), vehicle: saline with Tween-80) 73 % of control; under setting [1], 71 % of control; (dose: 300.0 mg/kg/injection, schedule: Q04DX003 (sc), vehicle: saline with Tween-80) 86 % of control.
For the compound `COc1ccc(C(=O)/C(Br)=C/C(=O)O)cc1`, the T/C reads like this: (dose: 25.0 mg/kg/injection, schedule: Q01DX010 (sc), vehicle: saline) 194 % of control; (dose: 50.0 mg/kg/injection, schedule: Q01DX010 (sc), vehicle: saline) 158 % of control.
With `Cc1ccc(S(=O)(=O)NC(=S)S)cc1`, the T/C reads like this: under setting [2], 203 % of control; under setting [3], 111 % of control; under setting [4], 196 % of control.
On to `CCCCCn1c(C)cc(/C=C\c2ccc3cc(C)ccc3[n+]2C)c1C`, for which the T/C (dose: 0.25 mg/kg/injection, schedule: Q01DX010 (sc), vehicle: Klucel (hydroxypropylcellulose) (HPC)) is 214 % of control; the T/C (dose: 1.0 mg/kg/injection, schedule: Q01DX010 (sc), vehicle: Klucel (hydroxypropylcellulose) (HPC)) is 212 % of control; the T/C (dose: 2.0 mg/kg/injection, schedule: Q01DX010 (sc), vehicle: Klucel (hydroxypropylcellulose) (HPC)) is 119 % of control.
For the compound `CCC(C(=O)O)C(=O)O.[NH-]CC1CCCC[N-]1.[Pt+2]`, the T/C reads like this: (dose: 100.0 mg/kg/injection, schedule: Q04DX003 (sc), vehicle: saline) 114 % of control; (dose: 200.0 mg/kg/injection, schedule: Q04DX003 (sc), vehicle: saline) 90 % of control; (dose: 400.0 mg/kg/injection, schedule: Q04DX003 (sc), vehicle: saline) 60 % of control.
Take `Nc1nnc[se]1`: the T/C was 82 % of control (dose: 100.0 mg/kg/injection, schedule: Q04DX003 (sc), vehicle: saline with Tween-80); 40 % of control (dose: 200.0 mg/kg/injection, schedule: Q04DX003 (sc), vehicle: saline with Tween-80); 30 % of control (dose: 400.0 mg/kg/injection, schedule: Q04DX003 (sc), vehicle: saline with Tween-80).
Turning to `COC1=C(OC)C(=O)C(C/C=C(\C)CC/C=C(\C)CC/C=C(\C)CC/C=C(\C)CC/C=C(\C)CC/C=C(\C)CC/C=C(\C)CC/C=C(\C)CC/C=C(\C)CCC=C(C)C)=C(C)C1=O`, the T/C runs as follows: under setting [5], 91 % of control; under setting [2], 90 % of control; under setting [3], 102 % of control; under setting [4], 104 % of control.
Turning to `COc1ccc(S(=O)(=O)N/N=C/C(=O)O)cc1`, the T/C under setting [5] was 210 % of control, the T/C under setting [2] was 119 % of control and the T/C under setting [3] was 72 % of control.
In the case of `COc1c(C=O)c2c(c(OC)c1OC)-c1ccc(OC)c(=O)cc1[C@@H](NC(C)=O)CC2`, the T/C is 83 % of control (dose: 18.75 mg/kg/injection, schedule: Q04DX003 (sc), vehicle: Klucel (hydroxypropylcellulose) (HPC)); 59 % of control (dose: 37.5 mg/kg/injection, schedule: Q04DX003 (sc), vehicle: Klucel (hydroxypropylcellulose) (HPC)); 32 % of control (dose: 75.0 mg/kg/injection, schedule: Q04DX003 (sc), vehicle: Klucel (hydroxypropylcellulose) (HPC)).
Consider `O=C1C2CC(Cl)C(SSC3CC4C(=O)N(SC(Cl)(Cl)C(Cl)Cl)C(=O)C4CC3Cl)CC2C(=O)N1SC(Cl)(Cl)C(Cl)Cl` (stereo not drawn), for which the T/C (dose: 75.0 mg/kg/injection, schedule: Q04DX003 (ip), vehicle: Klucel (hydroxypropylcellulose) (HPC)) was 83 % of control; the T/C (dose: 150.0 mg/kg/injection, schedule: Q04DX003 (ip), vehicle: Klucel (hydroxypropylcellulose) (HPC)) is 102 % of control; the T/C (dose: 300.0 mg/kg/injection, schedule: Q04DX003 (ip), vehicle: Klucel (hydroxypropylcellulose) (HPC)) is 76 % of control; the T/C (dose: 600.0 mg/kg/injection, schedule: Q04DX003 (ip), vehicle: Klucel (hydroxypropylcellulose) (HPC)) was 48 % of control.
Consider `[N-]=[N+]=CC(=O)CCC(N)C(=O)O` (stereo not drawn), for which the T/C (dose: 0.05 mg/kg/injection, schedule: Q01DX010 (sc), vehicle: saline) was 119 % of control; the T/C (dose: 0.05 mg/kg/injection, schedule: Q02DX005 (sc), vehicle: saline) is 226 % of control; the T/C (dose: 0.1 mg/kg/injection, schedule: Q01DX010 (sc), vehicle: saline) is 64 % of control; the T/C (dose: 0.1 mg/kg/injection, schedule: Q02DX005 (sc), vehicle: saline) was 187 % of control; the T/C (dose: 0.2 mg/kg/injection, schedule: Q02DX005 (sc), vehicle: saline) was 110 % of control; the T/C (dose: 0.4 mg/kg/injection, schedule: Q01DX010 (sc), vehicle: saline) is 34 % of control. The T/C (dose: 3.2 mg/kg/injection, schedule: Q02DX005 (sc), vehicle: saline) is 9 % of control.
For `CN(C)/N=N/c1nc[nH]c1C(N)=O`, the T/C reads like this: (dose: 100.0 mg/kg/injection, schedule: Q04DX003 (sc), vehicle: Klucel (hydroxypropylcellulose) (HPC)) -25 % of control; (dose: 200.0 mg/kg/injection, schedule: Q01DX010 (sc), vehicle: Klucel (hydroxypropylcellulose) (HPC)) 2 % of control; (dose: 200.0 mg/kg/injection, schedule: Q04DX003 (sc), vehicle: Klucel (hydroxypropylcellulose) (HPC)) -43 % of control; (dose: 400.0 mg/kg/injection, schedule: Q04DX003 (sc), vehicle: Klucel (hydroxypropylcellulose) (HPC)) -91 % of control; (dose: 800.0 mg/kg/injection, schedule: Q04DX003 (sc), vehicle: Klucel (hydroxypropylcellulose) (HPC)) -100 % of control.
Take `CC(=O)N(C)O`: the T/C under setting [1] was 92 % of control.
As for `Nc1ccn(C2OC(CO)C(O)C2O)c(=O)n1` (stereo not drawn), the T/C by setting is: (dose: 15.63 mg/kg/injection, schedule: Q01DX010 (sc), vehicle: water) 56 % of control; (dose: 31.25 mg/kg/injection, schedule: Q01DX010 (sc), vehicle: water) 91 % of control; (dose: 62.5 mg/kg/injection, schedule: Q01DX010 (sc), vehicle: water) 55 % of control; (dose: 125.0 mg/kg/injection, schedule: Q01DX010 (sc), vehicle: water) 2 % of control; (dose: 500.0 mg/kg/injection, schedule: Q04DX003 (sc), vehicle: saline) 87 % of control; (dose: 1000.0 mg/kg/injection, schedule: Q04DX003 (sc), vehicle: saline) 61 % of control.
As to `CN(Cc1cnc2nc(N)nc(N)c2n1)c1ccc(C(=O)N[C@@H](CCC(=O)O)C(=O)O)cc1`, the T/C is 72 % of control and 84 % of control (dose: 1.0 mg/kg/injection, schedule: Q01DX010 (sc), vehicle: sodium bicarbonate); 47 % of control (dose: 4.0 mg/kg/injection, schedule: Q01DX010 (sc), vehicle: sodium bicarbonate).
`CNc1nc(NC)nc(NC)n1`: the T/C (dose: 25.0 mg/kg/injection, schedule: Q01DX010 (sc), vehicle: Klucel (hydroxypropylcellulose) (HPC)) was 85 % of control and the T/C (dose: 100.0 mg/kg/injection, schedule: Q01DX010 (sc), vehicle: Klucel (hydroxypropylcellulose) (HPC)) was 107 % of control.
On to `Cn1cnc([N+](=O)[O-])c1[Se]c1nc(N)nc2nc[nH]c12`, for which the T/C was 64 % of control (dose: 50.0 mg/kg/injection, schedule: Q01DX010 (sc), vehicle: water) and 69 % of control (dose: 100.0 mg/kg/injection, schedule: Q01DX010 (sc), vehicle: water).
In the case of `N=C(N)c1ccc(/C=C/c2ccc(C(=N)N)cc2O)cc1`, the T/C is, setting by setting: (dose: 37.5 mg/kg/injection, schedule: Q04DX003 (sc), vehicle: water) 86 % of control; (dose: 75.0 mg/kg/injection, schedule: Q04DX003 (sc), vehicle: water) 56 % of control; (dose: 150.0 mg/kg/injection, schedule: Q04DX003 (sc), vehicle: water) 101 % of control; (dose: 300.0 mg/kg/injection, schedule: Q04DX003 (sc), vehicle: water) 43 % of control.
As for `COc1cc(C[C@H]2c3cc(OC)c(OC)cc3CCN2C)c(Oc2cc3c(cc2OC)-c2c(OC)c(OC)cc4c2[C@H](C3)N(C)CC4)cc1OC`, the T/C was 85 % of control under setting [5], 107 % of control under setting [2], 73 % of control under setting [3] and 90 % of control under setting [4].
For the compound `CCC12C[N+]3([O-])CCc4c([nH]c5ccccc45)C(C(=O)OC)(c4cc5c(cc4OC)N(C)C4C(O)(C(=O)OC)C(OC(C)=O)C6(CC)C=CCN7CCC54C76)CC(C3)C1O2` (stereo not drawn), the T/C is 64 % of control (dose: 40.0 mg/kg/injection, schedule: Q04DX003 (sc), vehicle: water); 86 % of control (dose: 80.0 mg/kg/injection, schedule: Q04DX003 (sc), vehicle: water); 93 % of control (dose: 160.0 mg/kg/injection, schedule: Q04DX003 (sc), vehicle: water); 93 % of control (dose: 320.0 mg/kg/injection, schedule: Q04DX003 (sc), vehicle: water).
